These results are taken from article PMC6562366 (Molecular Therapy Oncolytics, 2019).

In the assay the target is PIM-2 (Homo sapiens, UniProt Q9P1W9). In words: radiometric filter-binding kinase assay, recombinant kinase, dose-response. The class given is biochemical.
Sequence of PIM-2 (Q9P1W9 whole entry): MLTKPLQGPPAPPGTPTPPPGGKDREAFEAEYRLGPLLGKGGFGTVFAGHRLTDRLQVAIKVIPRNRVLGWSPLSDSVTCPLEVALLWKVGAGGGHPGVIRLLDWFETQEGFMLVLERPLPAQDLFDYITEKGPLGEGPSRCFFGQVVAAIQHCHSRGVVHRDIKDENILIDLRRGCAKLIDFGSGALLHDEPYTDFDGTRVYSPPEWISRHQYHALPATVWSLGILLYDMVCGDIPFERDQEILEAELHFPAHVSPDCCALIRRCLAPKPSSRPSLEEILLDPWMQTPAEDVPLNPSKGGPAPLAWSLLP

A word on the IC50: it is the point on the concentration scale where inhibition reaches its midpoint. Take `C/C(O)=C(\C#N)C(=O)Nc1ccc(C(F)(F)F)cc1` [Ter, Teriflunomide]: the IC50 worked out at 255 µM.
